Literature values, collected in PubChem BioAssay AID1259409 (Chemical Carcinogenesis Research Information System (CCRIS), 2018).

System: rodent chemically induced tumor inhibition, incidence and multiplicity
Assay: CCRIS tumor inhibitor studies
Conditions: Dose [Inhibitor]: 0, Route [Inhibitor]: ORAL

Question: What does the source list for `COc1ccc(-c2cc(=O)c3c(O)cc(O[C@@H]4O[C@H](CO[C@@H]5O[C@@H](C)[C@H](O)[C@@H](O)[C@H]5O)[C@@H](O)[C@H](O)[C@H]4O)cc3o2)cc1O`?
Answer: tumour outcome (control, treated, inhibition, significance) (Carcinogen: 4-NITROQUINOLINE-1-OXIDE, 56-57-5, 1000 PPM IN DIET FOR 10 WK BEGINNING 1 WK PRIOR TO CARCINOGEN TREATMENT (STUDY DURATION: 32 WK), Species: RAT, Strain/Sex: F344/MALE, Target Tissue: Type of Lesion: TONGUE: PAPILLOMA, Dose [Carcinogen]: 20 PPM IN DRINKING WATER FOR 8 WK, Promoter: NONE USED): 8/17 (47%), 1/19 (5%), 89%, p<0.01; tumour outcome (control, treated, inhibition, significance) (Carcinogen: 4-NITROQUINOLINE-1-OXIDE, 56-57-5, 1000 PPM IN DIET FOR 10 WK BEGINNING 1 WK PRIOR TO CARCINOGEN TREATMENT (STUDY DURATION: 32 WK), Species: RAT, Strain/Sex: R344/MALE, Target Tissue: Type of Lesion: TONGUE: SQUAMOUS CELL CARCINOMA, Dose [Carcinogen]: 20 PPM IN DRINKING WATER FOR 8 WK, Promoter: NONE USED): 11/17 (65%), 4/19 (21%), 68%, p<0.01; tumour outcome (control, treated, inhibition, significance) (Carcinogen: 4-NITROQUINOLINE-1-OXIDE, 56-57-5, 1000 PPM IN DIET FOR 22 WK BEGINNING 1 WK POST CARCINOGEN TREATMENT (STUDY DURATION: 32 WK), Species: RAT, Strain/Sex: F344/MALE, Target Tissue: Type of Lesion: TONGUE: PAPILLOMA, Dose [Carcinogen]: 20 PPM IN DRINKING WATER FOR 8 WK, Promoter: NONE USED): 8/17 (47%), 2/20 (10%), 79%, p<0.05; tumour outcome (control, treated, inhibition, significance) (Carcinogen: 4-NITROQUINOLINE-1-OXIDE, 56-57-5, 1000 PPM IN DIET FOR 22 WK BEGINNING 1 WK POST CARCINOGEN TREATMENT (STUDY DURATION: 32 WK), Species: RAT, Strain/Sex: F344/MALE, Target Tissue: Type of Lesion: TONGUE: SQUAMOUS CELL CARCINOMA, Dose [Carcinogen]: 20 PPM IN DRINKING WATER FOR 8 WK, Promoter: NONE USED): 11/17 (65%), 3/20 (15%), 77%, p<0.05; tumour outcome (control, treated, inhibition, significance) (Carcinogen: AZOXYMETHANE, 25843-45-2, 0.1% IN DIET FOR 4 WK BEGINNING 1 WK PRIOR TO CARCINOGEN TREATMENT (STUDY DURATION: 32 WK), Species: RAT, Strain/Sex: F344/MALE, Target Tissue: Type of Lesion: COLON: ADENOCARCINOMA, Dose [Carcinogen]: 15 MG/KG BW 1/WK FOR 3 WK, Promoter: NONE): 70%, 22%, 69%, p<0.005; tumour outcome (control, treated, inhibition, significance) (Carcinogen: AZOXYMETHANE, 25843-45-2, 0.1% IN DIET FOR 28 WK BEGINNING 1 WK POST LAST CARCINOGEN DOSE (STUDY DURATION: 32 WK), Species: RAT, Strain/Sex: F344/MALE, Target Tissue: Type of Lesion: COLON: ADENOCARCINOMA, Dose [Carcinogen]: 15 MG/KG BW 1/WK FOR 3 WK, Promoter: NONE): 70%, 5%, 93%, p<0.001; tumour outcome (control, treated, inhibition, significance) (Carcinogen: AZOXYMETHANE, 25843-45-2, 1000 PPM IN DIET FOR 4 WK BEGINNING 1 WK PRIOR TO CARCINOGEN TREATMENT (STUDY DURATION: 32 WK), Species: RAT, Strain/Sex: F344/MALE, Target Tissue: Type of Lesion: LARGE INTESTINE: TUMOR, Dose [Carcinogen]: 15 MG/KG BW 1/WK FOR 3 WK, Promoter: NONE USED): 12/17 (71%), 5/19 (26%), 63%, p<0.01; tumour outcome (control, treated, inhibition, significance) (Carcinogen: AZOXYMETHANE, 25843-45-2, 1000 PPM IN DIET FOR 4 WK BEGINNING 1 WK PRIOR TO CARCINOGEN TREATMENT (STUDY DURATION: 32 WK), Species: RAT, Strain/Sex: F344/MALE, Target Tissue: Type of Lesion: SMALL INTESTINE: TUMOR, Dose [Carcinogen]: 15 MG/KG BW 1/WK FOR 3 WK, Promoter: NONE USED): 5/17 (29%), 0/19 (0%), 100%, p<0.05; tumour outcome (control, treated, inhibition, significance) (Carcinogen: AZOXYMETHANE, 25843-45-2, 1000 PPM IN DIET FOR 28 WK BEGINNING 1 WK POST CARCINOGEN TREATMENT (STUDY DURATION: 32 WK), Species: RAT, Strain/Sex: F344/MALE, Target Tissue: Type of Lesion: LARGE INTESTINE: TUMOR, Dose [Carcinogen]: 15 MG/KG BW 1/WK FOR 3 WK, Promoter: NONE USED): 12/17 (71%), 3/20 (15%), 79%, p<0.001; tumour outcome (control, treated, inhibition, significance) (Carcinogen: AZOXYMETHANE, 25843-45-2, 1000 PPM IN DIET FOR 28 WK BEGINNING 1 WK POST CARCINOGEN TREATMENT (STUDY DURATION: 32 WK), Species: RAT, Strain/Sex: F344/MALE, Target Tissue: Type of Lesion: SMALL INTESTINE: TUMOR, Dose [Carcinogen]: 15 MG/KG BW 1/WK FOR 3 WK, Promoter: NONE USED): 5/17 (29%), 2/20 (10%), 66%, not significant; tumour outcome (control, treated, inhibition, significance) (Carcinogen: N-BUTYL-N-(4-HYDROXYBUTYL)NITROSAMINE, 3817-11-6, 1000 PPM IN DIET FOR 8 WK BEGINNING 1 WK PRIOR TO CARCINOGEN TREATMENT (STUDY DURATION: 32 WK), Species: MOUSE, Strain/Sex: ICR/MALE, Target Tissue: Type of Lesion: URINARY BLADDER: PAPILLOMA, Dose [Carcinogen]: 500 PPM IN DRINKING WATER FOR 6 WK, Promoter: NONE USED): 5/26 (19%), 4/24 (17%), 11%, not significant; tumour outcome (control, treated, inhibition, significance) (Carcinogen: N-BUTYL-N-(4-HYDROXYBUTYL)NITROSAMINE, 3817-11-6, 1000 PPM IN DIET FOR 8 WK BEGINNING 1 WK PRIOR TO CARCINOGEN TREATMENT (STUDY DURATION: 32 WK), Species: MOUSE, Strain/Sex: ICR/MALE, Target Tissue: Type of Lesion: URINARY BLADDER: TRANSITIONAL CELL CARCINOMA, Dose [Carcinogen]: 500 PPM IN DRINKING WATER FOR 6 WK, Promoter: NONE USED): 16/26 (62%), 5/24 (21%), 66%, p<0.005; tumour outcome (control, treated, inhibition, significance) (Carcinogen: N-BUTYL-N-(4-HYDROXYBUTYL)NITROSAMINE, 3817-11-6, 1000 PPM IN DIET FOR 24 WK BEGINNING 1 WK POST CARCINOGEN TREATMENT (STUDY DURATION: 32 WK), Species: MOUSE, Strain/Sex: ICR/MALE, Target Tissue: Type of Lesion: URINARY BLADDER: PAPILLOMA, Dose [Carcinogen]: 500 PPM IN DRINKING WATER FOR 6 WK, Promoter: NONE USED): 5/26 (19%), 3/24 (13%), 32%, not significant; tumour outcome (control, treated, inhibition, significance) (Carcinogen: N-BUTYL-N-(4-HYDROXYBUTYL)NITROSAMINE, 3817-11-6, 1000 PPM IN DIET FOR 24 WK BEGINNING 1 WK POST CARCINOGEN TREATMENT (STUDY DURATION: 32 WK), Species: MOUSE, Strain/Sex: ICR/MALE, Target Tissue: Type of Lesion: URINARY BLADDER: TRANSITIONAL CELL CARCINOMA, Dose [Carcinogen]: 500 PPM IN DRINKING WATER FOR 6 WK, Promoter: NONE USED): 16/26 (62%), 2/24 (8%), 87%, p<0.0001; tumour outcome (control, treated, inhibition, significance) (Carcinogen: N-METHYL-N-AMYLNITROSAMINE, 13256-07-0, 1000 PPM IN DIET FOR 7 WK BEGINNING 1 WK POST CARCINOGEN TREATMENT (STUDY DURATION: 20 WK), Species: RAT, Strain/Sex: WISTAR/MALE, Target Tissue: Type of Lesion: ESOPHAGUS: SQUAMOUS CELL CARCINOMA, Dose [Carcinogen]: 12.5 MG/KG BW 1/WK FOR 12 WK, Promoter: NONE USED): 75%, 39%, 48%, not significant; tumour outcome (control, treated, inhibition, significance) (Carcinogen: N-METHYL-N-AMYLNITROSAMINE, 13256-07-0, 1000 PPM IN DIET FOR 7 WK BEGINNING 1 WK POST CARCINOGEN TREATMENT (STUDY DURATION: 20 WK), Species: RAT, Strain/Sex: WISTAR/MALE, Target Tissue: Type of Lesion: ESOPHAGUS: SQUAMOUS CELL PAPILLOMA, Dose [Carcinogen]: 12.5 MG/KG BW 1/WK FOR 12 WK, Promoter: NONE USED): 100%, 100%, 0%, not significant; tumour outcome (control, treated, inhibition, significance) (Carcinogen: N-METHYL-N-AMYLNITROSAMINE, 13256-07-0, 1000 PPM IN DIET FOR 7 WK BEGINNING 1 WK POST CARCINOGEN TREATMENT (STUDY DURATION: 20 WK), Species: RAT, Strain/Sex: WISTAR/MALE, Target Tissue: Type of Lesion: TONGUE: SQUAMOUS CELL CARCINOMA, Dose [Carcinogen]: 12.5 MG/KG BW 1/WK FOR 12 WK, Promoter: NONE USED): 17%, 0%, 100%, not calculated; tumour outcome (control, treated, inhibition, significance) (Carcinogen: N-METHYL-N-AMYLNITROSAMINE, 13256-07-0, 1000 PPM IN DIET FOR 7 WK BEGINNING 1 WK POST CARCINOGEN TREATMENT (STUDY DURATION: 20 WK), Species: RAT, Strain/Sex: WISTAR/MALE, Target Tissue: Type of Lesion: TONGUE: SQUAMOUS CELL PAPILLOMA, Dose [Carcinogen]: 12.5 MG/KG BW 1/WK FOR 12 WK, Promoter: NONE USED): 33%, 11%, 67%, not calculated; tumour outcome (control, treated, inhibition, significance) (Carcinogen: N-METHYL-N-AMYLNITROSAMINE, 13256-07-0, 1000 PPM IN DIET FOR 13 WK BEGINNING 1 WK PRIOR TO CARCINOGEN TREATMENT (STUDY DURATION: 20 WK), Species: RAT, Strain/Sex: WISTAR/MALE, Target Tissue: Type of Lesion: ESOPHAGUS: SQUAMOUS CELL CARCINOMA, Dose [Carcinogen]: 12.5 MG/KG BW 1/WK FOR 12 WK, Promoter: NONE USED): 75%, 29%, 61%, p<0.05; tumour outcome (control, treated, inhibition, significance) (Carcinogen: N-METHYL-N-AMYLNITROSAMINE, 13256-07-0, 1000 PPM IN DIET FOR 13 WK BEGINNING 1 WK PRIOR TO CARCINOGEN TREATMENT (STUDY DURATION: 20 WK), Species: RAT, Strain/Sex: WISTAR/MALE, Target Tissue: Type of Lesion: ESOPHAGUS: SQUAMOUS CELL PAPILLOMA, Dose [Carcinogen]: 12.5 MG/KG BW 1/WK FOR 12 WK, Promoter: NONE USED): 100%, 100%, 0%, not significant; tumour outcome (control, treated, inhibition, significance) (Carcinogen: N-METHYL-N-AMYLNITROSAMINE, 13256-07-0, 1000 PPM IN DIET FOR 13 WK BEGINNING 1 WK PRIOR TO CARCINOGEN TREATMENT (STUDY DURATION: 20 WK), Species: RAT, Strain/Sex: WISTAR/MALE, Target Tissue: Type of Lesion: TONGUE: SQUAMOUS CELL CARCINOMA, Dose [Carcinogen]: 12.5 MG/KG BW 1/WK FOR 12 WK, Promoter: NONE USED): 17%, 0%, 100%, not calculated; tumour outcome (control, treated, inhibition, significance) (Carcinogen: N-METHYL-N-AMYLNITROSAMINE, 13256-07-0, 1000 PPM IN DIET FOR 13 WK BEGINNING 1 WK PRIOR TO CARCINOGEN TREATMENT (STUDY DURATION: 20 WK), Species: RAT, Strain/Sex: WISTAR/MALE, Target Tissue: Type of Lesion: TONGUE: SQUAMOUS CELL PAPILLOMA, Dose [Carcinogen]: 12.5 MG/KG BW 1/WK FOR 12 WK, Promoter: NONE USED): 33%, 6%, 82%, not calculated
